Assay [1] relates to human hepatocarcinoma cells (HepG2). Briefly: cells. Particulars: HepG2, read-out: cell mortality. Here is the method: The tumor cell line HepG2 was provided by ATCC (American Type Cell Culture—Mannas, Va., No. HB-8065) and subsequently developed in our laboratory. The cells were cultured in complete medium containing MEM added with 10% FCS (bovine fetal serum), 1 mM Na-pyruvate, 2 mM L-glutamine, 0.1 mM non-essential amino acids and antibiotics (penicillin/streptomycin). The medium, culture products and reagents were purchased from Hyclone-Celbio (Milan, Italy). The experimental design provided for the use of ST1326 and of known antineoplastic drugs, such as doxorubicin, against which the HepG2 cells show a high resistance, to determine the agonist action of the compound. […] In this experiment, the following compounds were added to hemiconfluent HepG2 cells in 96 well plates: • 0.25, 0.5, 5.0 μg/mL doxorubicin; • 0.1 μM ST in combination with 0.25 μg/mL doxorubicin.
After 24 hr incubation, the medium containing different concentrations of doxorubicin and the ST/doxorubicin combination was removed and the cells were washed with complete medium. After 3-day treatment, the antineoplastic effect of the test compound was determined in comparison with control cells incubated in complete medium for the same period of time.
The cell mortality was calculated as the percentage (mean±standard deviation) over 10.000 acquired events.

Assay [2] has the same test system. Briefly: Cell mortality of HepG2 cells by propidium iodide flow cytofluorimetry. The assay is classed as cell-based. Particulars: Homo sapiens. The protocol: (§1) The cells were seeded in 60 mm-diameter Petri dishes. After plating the cells were grown for 24 hours prior to their treatment.
(§2) In this experiment, increasing amounts of the test molecule were added to hemiconfluent HepG2 cells (Kogure et al., Cancer Chemother. Pharmacol., 2003; DOI. 10.1007/s); the antiproliferative and proapoptotic effects were determined at different times from cell seeding.
(§3) The experimental design in some cases provided for the addition of the test compound once the cell culture had been prepared, in other cases the cultures were exposed to the compound every 24 hours after suitably removing the conditioned medium and washing the cells with new (complete) medium. The cells were counted in a Bürker chamber after suitable dilution with a vital dye to visualize the living cells. In particular, the trypan blue exclusion method was used for cell count at 0, 24 and 48 hour treatment. At least 10 cell counts were performed for each experiment and each treatment was carried out in quadruple.
(§4) A further analysis involved cytofluorimetry utilizing propidium iodide as a marker for […] cells. The test compound was assayed vs. the CTP inhibitor etomoxir to verify whether the tumoricidal effect could be attributed to CPT-1 inhibition or involved novel mechanisms.
In addition, assays on cell viability were carried out using flow cytofluorimetry techniques.
In further experiments the test molecule was added every 24 hours, as above described, after suitably removing the surnatants and washing the cultures with complete medium. […] In the control, the surnatant was eliminated and complete medium alone was added to the cultures.

For assay [3] the test system is unchanged. Description: HepG2 cell count (trypan blue exclusion), antiproliferative and tumoricidal effect. The assay is classed as cell-based. Here is the method: as §1, §2, §3, §4
The data relating to cell viability are expressed as percentage on the number of viable cells from control cultures (=100%). (E=etomoxir; ST1326=tested compound). […] At the same concentrations etomoxir was ineffective.

The structures appear in SMILES notation. Where two headings read alike, the source gives them in different places.

Consider `COc1cccc2c1C(=O)c1c(O)c3c(c(O)c1C2=O)C[C@@](O)(C(=O)CO)C[C@@H]3O[C@H]1C[C@H](N)[C@H](O)[C@H](C)O1` [Doxorubicina, doxorubicin], for which, in assay [1], the mortality at 0.25 µg/mL amounted to 11.2 ± 1.5%, the mortality at 0.5 µg/mL was found to be 22.7 ± 3.5% and the mortality at 5 µg/mL was found to be 48.6 ± 4.1%.

For `CCOC(=O)[C@@]1(CCCCCCOc2ccc(Cl)cc2)CO1` [Etomoxir, etomoxir, reference compound], the mortality at 5 µM in assay [2] (HepG2, 24 h, read-out: cell mortality, HepG2, 5 μM, treated only once (time 0), 24 hours) amounted to 10.8 ± 1.65%; in assay [2] (HepG2, 48 h, read-out: cell mortality, HepG2, 5 μM, treated only once (time 0), 48 hours), 11.8 ± 0.4%; in assay [2] (HepG2, 72 h, read-out: cell mortality, HepG2, 5 μM, treated only once (time 0), 72 hours) it was 10.1 ± 2.1%; in assay [2] (HepG2, read-out: cell mortality, HepG2, 5 μM added every 24 hours, 48 hours (second addition)), 10.2 ± 1.7%; in assay [2] (HepG2, read-out: cell mortality, HepG2, 5 μM added every 24 hours, 72 hours (third addition)) it was 12.6 ± 1.1%. For the same compound, the mortality at 20 µM came to 13 ± 1.07% in assay [2] (HepG2, 24 h, read-out: cell mortality, HepG2, 20 μM, treated only once (time 0), 24 hours); 11.2 ± 1.3% in assay [2] (HepG2, 48 h, read-out: cell mortality, HepG2, 20 μM, treated only once (time 0), 48 hours); 11.7 ± 1.3% in assay [2] (HepG2, 72 h, read-out: cell mortality, HepG2, 20 μM, treated only once (time 0), 72 hours); 13.9 ± 1.2% in assay [2] (HepG2, read-out: cell mortality, HepG2, 20 μM added every 24 hours, 48 hours (second addition)); 14.1 ± 0.9% in assay [2] (HepG2, read-out: cell mortality, HepG2, 20 μM added every 24 hours, 72 hours (third addition)). Besides, in assay [3] (HepG2, less than 10 μM, after 24 hours), the “number of viable cells versus control cultures (FIGURE)” value was “ineffective”. For the same compound, the “antiproliferative and tumoricidal activity in vitro” value in assay [3] (tumor cell lines, same experimental conditions for etomoxir and compounds (I)) is “did not show any antiproliferative or tumoricidal activity”.

Source of the values: US8314144B2, “Compounds having antitumor activity” (Defiante Farmaceutica, S.A., priority 2004, dated 2012).
